Measured values reported in PMC4503349 (PLoS ONE, 2015).
Structures can show the parent of a compound that is named as a salt. Values belong to the compound of their own block, whether it stands above or below them.

How the values were obtained:
[1] = biological target: T1, calcineurin (CaN; CnAα catalytic subunit) (Homo sapiens, UniProt Q08209); test: malachite green phosphatase assay with RII phosphopeptide, absorbance dose-response, calmodulin present; type: biochemical
T1 construct: gene PPP3CA; recombinant human CaN, comprising CnAα and CnB subunits; with calcineurin B (CnB); calmodulin

[2] = biological target: T1, calcineurin (CaN; CnAα catalytic subunit); test: malachite green phosphatase assay with RII phosphopeptide; type: biochemical

Structure (SMILES): CN1CCN(CCCN2c3ccccc3Sc3ccc(C(F)(F)F)cc32)CC1 [LDN-0013906, tri-fluoperazine dihydrochloride]
IC50 [1]: 4.5 µM

Structure (SMILES): O=C(O)[C@@H]1[C@H](C(=O)O)[C@H]2CC[C@@H]1O2 [endothall]
IC50 [2]: 12.6 µM

IC50 ([1]; read-out: IC50): 106 µM
Structure (SMILES): Fc1ccc(C(c2ccc(F)cc2)N2CCN(C/C=C/c3ccccc3)CC2)cc1 [LDN-0013905, flunarizine hydrochloride]
